Experimental data as given in ChEMBL document CHEMBL3621205, “High-Throughput Screening of Patient-Derived Cultures Reveals Potential for Precision Medicine in Glioblastoma” (ACS Med Chem Lett, 2015).
Calls of active or inactive are those of the source. The calls are words filed in the database; no cut-off is given here.

What was measured:
Type in all cases: functional, cell-based
[1] = system: Glioma; experiment: Decrease in phosphorylated S6 ribosomal protein level at Ser235 residue in human Glioma cells (HF2476) by western blot analysis
[2] = system: Glioma; experiment: Decrease in phosphorylated S6 ribosomal protein level at Ser236 residue in human Glioma cells (HF2476) by western blot analysis
[3] = system: Glioma; experiment: Decrease in phosphorylated S6 ribosomal protein level at Ser235 residue in human Glioma cells (HF2876) by western blot analysis
[4] = system: Glioma; experiment: Decrease in phosphorylated S6 ribosomal protein level at Ser236 residue in human Glioma cells (HF2876) by western blot analysis
[5] = system: Glioma; experiment: Cytotoxicity against human Glioma cells (HF2476) after 72 hrs by CelltiterGlo assay in presence of Bcl2-inhibitor ABT-263
[6] = system: Glioma; experiment: Cytotoxicity against human Glioma cells (HF3013) after 72 hrs by CelltiterGlo assay in presence of Bcl2-inhibitor ABT-263
[7] = system: Glioma; experiment: Cytotoxicity against human Glioma cells (HF2303) after 72 hrs by CelltiterGlo assay in presence of Bcl2-inhibitor ABT-263
[8] = system: Glioma; experiment: Cytotoxicity against human Glioma cells (HF2876) after 72 hrs by CelltiterGlo assay in presence of Bcl2-inhibitor ABT-263
[9] = system: Glioma; experiment: Cytotoxicity against human Glioma cells (HF2303) after 72 hrs by CelltiterGlo assay
[10] = system: Glioma; experiment: Cytotoxicity against human Glioma cells (HF2476) after 72 hrs by CelltiterGlo assay
[11] = system: Glioma; experiment: Cytotoxicity against human Glioma cells (HF2876) after 72 hrs by CelltiterGlo assay
[12] = system: Glioma; experiment: Cytotoxicity against human Glioma cells (HF3013) after 72 hrs by CelltiterGlo assay
[13] = system: Glioma; experiment: Induction of apoptosis in human Glioma cells (HF2476) assessed as increase in cleaved caspase-3 level by western blot analysis
[14] = system: Glioma; experiment: Induction of apoptosis in human Glioma cells (HF2876) assessed as increase in cleaved caspase-3 level by western blot analysis
[15] = system: Glioma; experiment: Cytotoxicity against human Glioma cells (HF2476) after 72 hrs by CelltiterGlo assay in presence of mTOR inhibitor AZD-8055
[16] = system: Glioma; experiment: Cytotoxicity against human Glioma cells (HF3013) after 72 hrs by CelltiterGlo assay in presence of mTOR inhibitor AZD-8055
[17] = system: Glioma; experiment: Cytotoxicity against human Glioma cells (HF2303) after 72 hrs by CelltiterGlo assay in presence of mTOR inhibitor AZD-8055
[18] = system: Glioma; experiment: Cytotoxicity against human Glioma cells (HF2876) after 72 hrs by CelltiterGlo assay in presence of mTOR inhibitor AZD-8055
[19] = system: Glioma; experiment: Cytotoxicity against human Glioma cells (HF2303) at 50 uM after 72 hrs by CelltiterGlo assay
[20] = system: Glioma; experiment: Cytotoxicity against human Glioma cells (HF2381) at 50 uM after 72 hrs by CelltiterGlo assay
[21] = system: Glioma; experiment: Cytotoxicity against human Glioma cells (HF2476) at 50 uM after 72 hrs by CelltiterGlo assay
[22] = system: Glioma; experiment: Cytotoxicity against human Glioma cells (HF2790) at 50 uM after 72 hrs by CelltiterGlo assay
[23] = system: Glioma; experiment: Cytotoxicity against human Glioma cells (HF2876) at 50 uM after 72 hrs by CelltiterGlo assay
[24] = system: Glioma; experiment: Cytotoxicity against human Glioma cells (HF2885) at 50 uM after 72 hrs by CelltiterGlo assay
[25] = system: Glioma; experiment: Cytotoxicity against human Glioma cells (HF3013) at 50 uM after 72 hrs by CelltiterGlo assay

COc1ccc(-c2ccc3c(N4CCOC[C@@H]4C)nc(N4CCOC[C@@H]4C)nc3n2)cc1CO
inhibition [1]: Active
inhibition [2]: Active
inhibition [3]: Active
inhibition [4]: Active
Activity [5]: Active
Activity [6]: Active
Activity [7]: inactive
Activity [8]: inactive

CC1(C)CCC(c2ccc(Cl)cc2)=C(CN2CCN(c3ccc(C(=O)NS(=O)(=O)c4ccc(N[C@H](CCN5CCOCC5)CSc5ccccc5)c(S(=O)(=O)C(F)(F)F)c4)cc3)CC2)C1
Activity [9]: inactive
Activity [10]: inactive
Activity [11]: inactive
Activity [12]: inactive
Activity [13]: Active
Activity [14]: Active
Activity [15]: Active
Activity [16]: Active
Activity [17]: Active
Activity [18]: Active

Cn1nnc2c(C(N)=O)ncn2c1=O
Activity [19]: inactive
Activity [20]: inactive
Activity [21]: inactive
Activity [22]: inactive
Activity [23]: inactive
Activity [24]: inactive
Activity [25]: inactive
